Active and inactive are the calls of the source. The rule behind the calls is not given here.
Test system: CCRIS mutagenicity, Ames/micronucleus/aberration tests
Experiment: CCRIS mutagenicity studies
[1] = Test System: AMES SALMONELLA TYPHIMURIUM, Strain/Indicator: TA98, Metabolic Activation: NONE, Method: PREINCUBATION
[2] = Test System: AMES SALMONELLA TYPHIMURIUM, Strain/Indicator: TA100, Metabolic Activation: NONE, Method: PREINCUBATION
[3] = Test System: AMES SALMONELLA TYPHIMURIUM, Strain/Indicator: TA1535, Metabolic Activation: NONE, Method: PREINCUBATION
[4] = Test System: AMES SALMONELLA TYPHIMURIUM, Strain/Indicator: TA1537, Metabolic Activation: NONE, Method: PREINCUBATION
[5] = Test System: AMES SALMONELLA TYPHIMURIUM, Strain/Indicator: TA1538, Metabolic Activation: NONE, Method: PREINCUBATION

NC(=O)Nc1nc2ccccc2[nH]1
mutagenic call (Test System: AMES SALMONELLA TYPHIMURIUM, Strain/Indicator: TA98, Metabolic Activation: HAMSTER, LIVER, S-9, AROCLOR 1254 (30%), Method: PREINCUBATION): active; positive | mutagenic call [1]: active; positive | mutagenic call (Test System: AMES SALMONELLA TYPHIMURIUM, Strain/Indicator: TA98, Metabolic Activation: RAT, LIVER, S-9, AROCLOR 1254 (30%), Method: PREINCUBATION): active; positive | mutagenic call (Test System: AMES SALMONELLA TYPHIMURIUM, Strain/Indicator: TA100, Metabolic Activation: HAMSTER, LIVER, S-9, AROCLOR 1254 (30%), Method: PREINCUBATION): inactive; negative | mutagenic call [2]: inactive; negative | mutagenic call (Test System: AMES SALMONELLA TYPHIMURIUM, Strain/Indicator: TA100, Metabolic Activation: RAT, LIVER, S-9, AROCLOR 1254 (30%), Method: PREINCUBATION): inactive; negative

COC1=CC=CC=CC1
mutagenic call [1]: inactive; negative | mutagenic call (Test System: AMES SALMONELLA TYPHIMURIUM, Strain/Indicator: TA98, Metabolic Activation: NONE, Method: STANDARD PLATE): inactive; negative | mutagenic call (Test System: AMES SALMONELLA TYPHIMURIUM, Strain/Indicator: TA98, Metabolic Activation: RAT, LIVER, S-9, Method: PREINCUBATION): inactive; negative | mutagenic call (Test System: AMES SALMONELLA TYPHIMURIUM, Strain/Indicator: TA98, Metabolic Activation: RAT, LIVER, S-9, Method: STANDARD PLATE): inactive; negative | mutagenic call [2]: inactive; negative | mutagenic call (Test System: AMES SALMONELLA TYPHIMURIUM, Strain/Indicator: TA100, Metabolic Activation: NONE, Method: STANDARD PLATE): inactive; negative | mutagenic call (Test System: AMES SALMONELLA TYPHIMURIUM, Strain/Indicator: TA100, Metabolic Activation: RAT, LIVER, S-9, Method: PREINCUBATION): inactive; negative | mutagenic call (Test System: AMES SALMONELLA TYPHIMURIUM, Strain/Indicator: TA100, Metabolic Activation: RAT, LIVER, S-9, Method: STANDARD PLATE): inactive; negative | mutagenic call [3]: inactive; negative | mutagenic call (Test System: AMES SALMONELLA TYPHIMURIUM, Strain/Indicator: TA1535, Metabolic Activation: NONE, Method: STANDARD PLATE): inactive; negative | mutagenic call (Test System: AMES SALMONELLA TYPHIMURIUM, Strain/Indicator: TA1535, Metabolic Activation: RAT, LIVER, S-9, Method: PREINCUBATION): inactive; negative | mutagenic call (Test System: AMES SALMONELLA TYPHIMURIUM, Strain/Indicator: TA1535, Metabolic Activation: RAT, LIVER, S-9, Method: STANDARD PLATE): inactive; negative | mutagenic call [4]: inactive; negative | mutagenic call (Test System: AMES SALMONELLA TYPHIMURIUM, Strain/Indicator: TA1537, Metabolic Activation: RAT, LIVER, S-9, Method: PREINCUBATION): inactive; negative | mutagenic call [5]: inactive; negative | mutagenic call (Test System: AMES SALMONELLA TYPHIMURIUM, Strain/Indicator: TA1538, Metabolic Activation: NONE, Method: STANDARD PLATE): active; positive | mutagenic call (Test System: AMES SALMONELLA TYPHIMURIUM, Strain/Indicator: TA1538, Metabolic Activation: RAT, LIVER, S-9, Method: PREINCUBATION): inactive; negative | mutagenic call (Test System: AMES SALMONELLA TYPHIMURIUM, Strain/Indicator: TA1538, Metabolic Activation: RAT, LIVER, S-9, Method: STANDARD PLATE): active; positive | mutagenic call (Test System: CHINESE HAMSTER V-79, Strain/Indicator: V-79/8-AZAGUANINE (HGPRT), Metabolic Activation: NONE, Method: STANDARD PLATE): active; positive | mutagenic call (Test System: CHINESE HAMSTER V-79, Strain/Indicator: V-79/8-AZAGUANINE (HGPRT), Metabolic Activation: RAT, LIVER, S-9, Method: STANDARD PLATE): active; positive | mutagenic call (Test System: MOUSE LYMPHOMA, Strain/Indicator: L5178Y (TK+/TK-), Metabolic Activation: NONE): inactive; negative | mutagenic call (Test System: MOUSE LYMPHOMA, Strain/Indicator: L5178Y (TK+/TK-), Metabolic Activation: RAT, LIVER, S-9): active; positive | mutagenic call (Test System: MOUSE LYMPHOMA, Strain/Indicator: L5178Y (TK+/TK-), Metabolic Activation: RAT, LIVER, S-9, AROCLOR 1254): active; positive

O=c1ccc(=O)c2c(=O)c(Cl)c(Cl)c(=O)c1=2
mutagenic call (Test System: AMES SALMONELLA TYPHIMURIUM, Strain/Indicator: TA97, Metabolic Activation: NONE, Method: PREINCUBATION): inactive; negative | mutagenic call (Test System: AMES SALMONELLA TYPHIMURIUM, Strain/Indicator: TA97, Metabolic Activation: RAT, LIVER, S-9, PHENOBARBITAL AND 5,6-BENZOFLAVONE, Method: PREINCUBATION): active; positive | mutagenic call [1]: inactive; negative | mutagenic call (Test System: AMES SALMONELLA TYPHIMURIUM, Strain/Indicator: TA98, Metabolic Activation: RAT, LIVER, S-9, PHENOBARBITAL AND 5,6-BENZOFLAVONE, Method: PREINCUBATION): inactive; negative | mutagenic call [2]: inactive; negative | mutagenic call (Test System: AMES SALMONELLA TYPHIMURIUM, Strain/Indicator: TA100, Metabolic Activation: RAT, LIVER, S-9, PHENOBARBITAL AND 5,6-BENZOFLAVONE, Method: PREINCUBATION): inactive; negative | mutagenic call (Test System: AMES SALMONELLA TYPHIMURIUM, Strain/Indicator: TA102, Metabolic Activation: NONE, Method: PREINCUBATION): active; positive | mutagenic call (Test System: AMES SALMONELLA TYPHIMURIUM, Strain/Indicator: TA102, Metabolic Activation: RAT, LIVER, S-9, PHENOBARBITAL AND 5,6-BENZOFLAVONE, Method: PREINCUBATION): active; positive | mutagenic call (Test System: AMES SALMONELLA TYPHIMURIUM, Strain/Indicator: TA104, Metabolic Activation: NONE, Method: PREINCUBATION): active; positive | mutagenic call (Test System: AMES SALMONELLA TYPHIMURIUM, Strain/Indicator: TA104, Metabolic Activation: RAT, LIVER, S-9, PHENOBARBITAL AND 5,6-BENZOFLAVONE, Method: PREINCUBATION): active; positive | mutagenic call [3]: inactive; negative | mutagenic call (Test System: AMES SALMONELLA TYPHIMURIUM, Strain/Indicator: TA1535, Metabolic Activation: RAT, LIVER, S-9, PHENOBARBITAL AND 5,6-BENZOFLAVONE, Method: PREINCUBATION): inactive; negative | mutagenic call [4]: inactive; negative | mutagenic call (Test System: AMES SALMONELLA TYPHIMURIUM, Strain/Indicator: TA1537, Metabolic Activation: RAT, LIVER, S-9, PHENOBARBITAL AND 5,6-BENZOFLAVONE, Method: PREINCUBATION): inactive; negative | mutagenic call [5]: inactive; negative | mutagenic call (Test System: AMES SALMONELLA TYPHIMURIUM, Strain/Indicator: TA1538, Metabolic Activation: RAT, LIVER, S-9, PHENOBARBITAL AND 5,6-BENZOFLAVONE, Method: PREINCUBATION): inactive; negative | mutagenic call (Test System: AMES SALMONELLA TYPHIMURIUM, Strain/Indicator: TA2637, Metabolic Activation: NONE, Method: PREINCUBATION): active; positive | mutagenic call (Test System: AMES SALMONELLA TYPHIMURIUM, Strain/Indicator: TA2637, Metabolic Activation: RAT, LIVER, S-9, PHENOBARBITAL AND 5,6-BENZOFLAVONE, Method: PREINCUBATION): active; positive

C=CCOC(=O)c1ccccc1N
mutagenic call (Test System: AMES SALMONELLA TYPHIMURIUM, Strain/Indicator: TA98, Metabolic Activation: HAMSTER, LIVER, S-9, AROCLOR 1254 (10%), Method: PREINCUBATION): inactive; negative | mutagenic call [1]: inactive; negative | mutagenic call (Test System: AMES SALMONELLA TYPHIMURIUM, Strain/Indicator: TA98, Metabolic Activation: RAT, LIVER, S-9, AROCLOR 1254 (10%), Method: PREINCUBATION): inactive; negative | mutagenic call (Test System: AMES SALMONELLA TYPHIMURIUM, Strain/Indicator: TA100, Metabolic Activation: HAMSTER, LIVER, S-9, AROCLOR 1254 (10%), Method: PREINCUBATION): inactive; negative | mutagenic call [2]: inactive; negative | mutagenic call (Test System: AMES SALMONELLA TYPHIMURIUM, Strain/Indicator: TA100, Metabolic Activation: RAT, LIVER, S-9, AROCLOR 1254 (10%), Method: PREINCUBATION): inactive; negative | mutagenic call (Test System: AMES SALMONELLA TYPHIMURIUM, Strain/Indicator: TA1535, Metabolic Activation: HAMSTER, LIVER, S-9, AROCLOR 1254 (10%), Method: PREINCUBATION): inactive; negative | mutagenic call [3]: inactive; negative | mutagenic call (Test System: AMES SALMONELLA TYPHIMURIUM, Strain/Indicator: TA1535, Metabolic Activation: RAT, LIVER, S-9, AROCLOR 1254 (10%), Method: PREINCUBATION): inactive; negative | mutagenic call (Test System: AMES SALMONELLA TYPHIMURIUM, Strain/Indicator: TA1537, Metabolic Activation: HAMSTER, LIVER, S-9, AROCLOR 1254 (10%), Method: PREINCUBATION): inactive; negative | mutagenic call [4]: inactive; negative | mutagenic call (Test System: AMES SALMONELLA TYPHIMURIUM, Strain/Indicator: TA1537, Metabolic Activation: RAT, LIVER, S-9, AROCLOR 1254 (10%), Method: PREINCUBATION): inactive; negative
